Results as given in patent publication US20030153552A1, “Method of treating chemical dependency in mammals and a composition therefor” (priority 2002, published 2003).

Test: plasma concentration of ibogaine and its metabolite 12-hydroxy ibogamine over time after ibogaine administration to a human patient
Type: in vivo
Description: An amount of ibogaine was administered to a human patient, and the plasma concentration of both ibogaine and a metabolite thereof, 12-hydroxy ibogamine, were observed as a function of time.
FIG. 1 illustrates the result of administering a certain dosage of ibogaine to a human patient, where the plasma concentration of ibogaine is measured over time. In essence, a peak plasma concentration of about 1,100 ng/ml is observed at administration. It is also notable that at about 11 hours after ibogaine administration, plasma concentration of ibogaine diminished to less than 400 ng/ml. After about 24 hours, plasma concentration diminished to less than 200 ng/ml. Thus, ibogaine is rather quickly eliminated by the patient.
By contrast, FIG. 2 illustrates the variation of noribogaine plasma concentration with time as a metabolite from the same ibogaine administration described above. In essence, a peak plasma concentration of noribogaine of about 590 ng/ml was reached only after about 11 hours from administration. Thereafter, even at 24 hours, a plasma concentration of greater than 500 ng/ml was observed.

Structure (SMILES) | peak plasma concentration of ibogaine (after ibogaine administration, (FIG. 1)) | concentration at 24 h (plasma, after about 24 hours (FIG. 1)) [µg/mL] | concentration at 11 h (plasma, at about 11 hours after ibogaine administration (FIG. 1)) [µg/mL] | plasma half-life compared with ibogaine (after ibogaine administration) | plasma concentration of noribogaine (at 24 hours, noribogaine as metabolite from ibogaine administration (FIG. 2)) | time to peak plasma concentration of noribogaine (from ibogaine administration, noribogaine as metabolite (FIG. 2)) | peak plasma concentration of noribogaine (noribogaine as metabolite from ibogaine administration (FIG. 2))
CC[C@H]1C[C@H]2C[C@H]3c4[nH]c5ccc(OC)cc5c4CCN(C2)C13 [ibogaine, reference compound] | about 1,100 ng/ml | < 0.2 | < 0.4 |  |  |  | 
CC[C@H]1C[C@H]2C[C@H]3c4[nH]c5ccc(O)cc5c4CCN(C2)[C@@H]13 [noribogaine, 12-hydroxy ibogamine] |  |  |  | much longer plasma half-life than ibogaine | greater than 500 ng/ml | about 11 hours | about 590 ng/ml
